# Laboratory results published in ChEMBL document CHEMBL5143549, “Phenothiazine, anthraquinone and related tricyclic derivatives as inhibitors of monoamine oxidase” (Bioorg Med Chem, 2022).
# pIC50, pKi: −log10 of the molar value.
# Species on record: Homo sapiens
# Assay: Selectivity index, ratio IC50 for recombinant human MAO-B to IC50 for recombinant human MAO-A
row,SMILES,Ratio IC50
1,Nc1ccc2c(c1N)C(=O)c1ccccc1C2=O,1.06
2,O=C1c2ccccc2C(=O)c2c(O)ccc(O)c21 [QUINIZARIN],1690
3,Nc1c2ccccc2nc2ccccc12 [AMINACRINE],4.31
4,O=C1c2ccccc2C(=O)c2cnccc21,0.21
5,c1ccc2c(c1)Cc1ccccc1O2 [XANTHENE],0.32
6,O=C1c2ccc(O)cc2C(=O)c2ccc(O)cc21 [ANTHRAFLAVICACID],0.49
7,O=C1c2cccc(O)c2C(=O)c2c(O)cccc21 [DANTHRON],5.49
8,Nc1c(C(=O)O)c2nc3c(C(=O)O)cccc3oc-2cc1=O [CINNABARINIC ACID],1.43
9,Cc1cc(O)c2c(c1)C(=O)c1cc(O)cc(O)c1C2=O [EMODIN],0.75
10,O=C1c2cccc(O)c2C(=O)c2c(O)cc(CO)cc21 [ALOE-EMODIN],12.4
11,OC1c2ccccc2Oc2ccccc21,3.24
12,Clc1c2ccccc2nc2ccccc12,7.6
13,O=C1c2ccccc2C(=O)c2c(O)c(O)cc(O)c21 [PURPURIN],5.03

# Molecular target: T1, Amine oxidase [flavin-containing] A (Homo sapiens, UniProt P21397)
# T1 sequence (P21397 whole entry): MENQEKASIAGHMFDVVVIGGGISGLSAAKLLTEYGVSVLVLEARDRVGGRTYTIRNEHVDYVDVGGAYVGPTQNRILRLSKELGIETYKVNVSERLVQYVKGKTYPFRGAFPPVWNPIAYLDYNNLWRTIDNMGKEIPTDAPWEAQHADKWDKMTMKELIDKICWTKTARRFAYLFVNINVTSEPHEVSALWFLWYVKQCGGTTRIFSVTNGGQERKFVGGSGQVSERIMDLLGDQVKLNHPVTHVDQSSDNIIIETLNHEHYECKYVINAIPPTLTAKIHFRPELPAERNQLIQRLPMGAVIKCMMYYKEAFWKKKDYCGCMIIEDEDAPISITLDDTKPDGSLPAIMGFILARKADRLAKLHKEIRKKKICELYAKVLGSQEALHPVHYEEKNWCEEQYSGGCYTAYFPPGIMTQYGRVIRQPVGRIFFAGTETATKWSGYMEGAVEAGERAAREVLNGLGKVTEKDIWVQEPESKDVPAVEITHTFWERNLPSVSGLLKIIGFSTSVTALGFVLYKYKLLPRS
# Assay: Inhibition of recombinant human MAO-A expressed in baculovirus infected BTI insect cells using kynuramine as substrate after 20 mins by fluorescence spectrophotometric assay
row,SMILES,pIC50
1,Nc1ccc2c(c1N)C(=O)c1ccccc1C2=O,5.64
2,COc1ccc2c(c1)Sc1ccc(Cl)cc1N2,6.24
3,O=C1c2ccccc2C(=O)c2c(O)ccc(O)c21 [QUINIZARIN],7.19
4,Nc1c2ccccc2nc2ccccc12 [AMINACRINE],4.59
5,O=C1c2ccccc2C(=O)c2cnccc21,4.69
6,c1ccc2c(c1)Cc1ccccc1O2 [XANTHENE],4.61
7,Cc1ccc2nc3c(ccc4ccccc43)c(C)c2c1,4.02
8,O=C1c2ccccc2C(=O)c2ccccc21 [ANTHRAQUINONE],3.91
9,Clc1ccc2c(c1)Nc1ccccc1S2,5.91
10,O=C1c2ccc(O)cc2C(=O)c2ccc(O)cc21 [ANTHRAFLAVICACID],4.94
11,O=C1c2cccc(O)c2C(=O)c2c(O)cccc21 [DANTHRON],4.97
12,O=C1c2ccc(O)c(O)c2C(=O)c2c(O)ccc(O)c21 [QUINALIZARIN],4.77
13,Nc1c(C(=O)O)c2nc3c(C(=O)O)cccc3oc-2cc1=O [CINNABARINIC ACID],4.34
14,O=C1c2ccccc2C(=O)c2c1ccc1c(=O)c3ccccc3[nH]c21,4.07
15,O=C1c2ccccc2Cc2ccccc21 [ANTHRONE],5.72
16,Cc1cc(O)c2c(c1)C(=O)c1cc(O)cc(O)c1C2=O [EMODIN],5.36
17,CC1(C)CC(=O)C2=C(C1)C(=O)C1=C(C2)C(=O)CC(C)(C)C1,4.29
18,O=C1c2cccc(O)c2C(=O)c2c(O)cc(CO)cc21 [ALOE-EMODIN],5.75
19,O=c1c2ccccc2oc2ccccc12 [XANTHONE],6.21
20,CN1c2ccccc2Sc2ccccc21,4.60
21,OC1c2ccccc2Oc2ccccc21,4.55
22,Clc1c2ccccc2nc2ccccc12,4.92
23,Nc1ccc(N)c2c1C(=O)c1ccccc1C2=O,5.97
24,"O=C1C(=O)c2ccccc2-c2ccccc21 [9,10-PHENANTHRENEQUINONE]",5.72
25,O=C1c2cccc(O)c2C(=O)c2cccc(O)c21 [ANTHRARUFIN],4.51
26,O=C1c2ccccc2C(=O)c2c(O)c(O)cc(O)c21 [PURPURIN],5.10

# Molecular target: T2, Amine oxidase [flavin-containing] B (Homo sapiens, UniProt P27338)
# T2 sequence (P27338 whole entry): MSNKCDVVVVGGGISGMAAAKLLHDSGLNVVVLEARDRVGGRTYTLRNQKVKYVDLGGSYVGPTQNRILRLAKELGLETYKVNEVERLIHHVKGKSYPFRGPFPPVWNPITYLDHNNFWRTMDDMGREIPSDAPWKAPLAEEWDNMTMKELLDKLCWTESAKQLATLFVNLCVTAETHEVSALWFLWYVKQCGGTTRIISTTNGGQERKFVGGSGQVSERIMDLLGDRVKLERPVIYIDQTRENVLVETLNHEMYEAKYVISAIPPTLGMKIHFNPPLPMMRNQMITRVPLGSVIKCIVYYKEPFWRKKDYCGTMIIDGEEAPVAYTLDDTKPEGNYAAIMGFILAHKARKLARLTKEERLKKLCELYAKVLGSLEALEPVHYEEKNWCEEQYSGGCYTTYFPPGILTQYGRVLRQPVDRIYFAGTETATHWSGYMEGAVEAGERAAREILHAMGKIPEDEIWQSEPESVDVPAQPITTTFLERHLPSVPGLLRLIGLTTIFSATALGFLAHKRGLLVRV
# Assay: Inhibition of recombinant human MAO-B expressed in baculovirus infected BTI insect cells using kynuramine as substrate after 20 mins by fluorescence spectrophotometric assay
row,SMILES,pIC50
1,Nc1ccc2c(c1N)C(=O)c1ccccc1C2=O,5.62
2,COc1ccc2c(c1)Sc1ccc(Cl)cc1N2,5.87
3,O=C1c2ccccc2C(=O)c2c(O)ccc(O)c21 [QUINIZARIN],3.96
4,Nc1c2ccccc2nc2ccccc12 [AMINACRINE],3.95
5,O=C1c2ccccc2C(=O)c2cnccc21,5.37
6,c1ccc2c(c1)Cc1ccccc1O2 [XANTHENE],5.13
7,O=C1c2ccc(O)cc2C(=O)c2ccc(O)cc21 [ANTHRAFLAVICACID],5.25
8,O=C1c2cccc(O)c2C(=O)c2c(O)cccc21 [DANTHRON],4.23
9,Nc1c(C(=O)O)c2nc3c(C(=O)O)cccc3oc-2cc1=O [CINNABARINIC ACID],4.19
10,Cc1cc(O)c2c(c1)C(=O)c1cc(O)cc(O)c1C2=O [EMODIN],5.49
11,O=C1c2cccc(O)c2C(=O)c2c(O)cc(CO)cc21 [ALOE-EMODIN],4.66
12,OC1c2ccccc2Oc2ccccc21,4.04
13,Clc1c2ccccc2nc2ccccc12,4.04
14,O=C1c2ccccc2C(=O)c2c(O)c(O)cc(O)c21 [PURPURIN],4.40

# Molecular target: T2, Amine oxidase [flavin-containing] B
# Assay: Inhibition of recombinant human MAO-B expressed in baculovirus infected BTI insect cells using kynuramine as substrate after 20 mins by Lineweaver-Burk plot analysis
row,SMILES,pKi
1,COc1ccc2c(c1)Sc1ccc(Cl)cc1N2,7.35

# Molecular target: T1, Amine oxidase [flavin-containing] A
# Assay: Inhibition of recombinant human MAO-A expressed in baculovirus infected BTI insect cells using kynuramine as substrate after 20 mins by Lineweaver-Burk plot analysis
row,SMILES,pKi
1,O=C1c2ccccc2C(=O)c2c(O)ccc(O)c21 [QUINIZARIN],7.41
